Assay results taken from PubChem BioAssay AID743155 (The Scripps Research Institute Molecular Screening Center, 2013).
Active and inactive are the calls of the source. The rule behind the calls is not given here.

system: Jurkat cells cytotoxicity, ATP luminescence; test: Jurkat cell viability loss, dose response – luminescence, human T lymphocytes, Round001, cytotoxicity control for T. brucei MetRS inhibitor project, late-stage follow-up (AID 743155)

SMILES | IC50
CCN(CC)C(=O)C(=O)c1cn(CC(=O)Nc2ccccc2OC)c2ccccc12 | > 83.3 µM (inactive)
CCN(CCc1nc2ccc(C)cc2[nH]1)C(=O)c1ccc2ncccc2c1 | > 83.3 µM (inactive)
COc1ccc(NC(=O)CSc2nnc3c4cc(C)ccc4n(C)c3n2)cc1 | > 83.3 µM (inactive)
Cc1ccc(C(=O)NCCc2nc3ccccc3[nH]2)cc1[N+](=O)[O-] | > 27.8 µM (inactive)
O=C(NCCc1nc2ccccc2[nH]1)c1ccc(Cl)cc1Cl | > 27.8 µM (inactive)
CC(C)c1nc2ccc(C(=O)N(C)CCc3nc4ccc(F)cc4[nH]3)cc2o1 | > 83.3 µM (inactive)
O=C(CSc1nnc2c(n1)[nH]c1ccc(Br)cc12)NCc1ccccc1 | > 27.8 µM (inactive)
O=C(Nc1ccc(F)c(Cl)c1)C1CC(=O)n2c(nc3ccccc32)N1 (centres undefined) | > 83.3 µM (inactive)
CCC(=O)c1cn(CC(=O)Nc2cccc(C(F)(F)F)c2)c2ccccc12 | > 27.8 µM (inactive)
CC(=O)N(CCc1ccccc1)C1CC(=O)N(c2ccc(Cl)cc2)C1=O (centres undefined) | > 27.8 µM (inactive)
Cc1ccc2[nH]c3nc(SCC(=O)Nc4ccc(C(F)(F)F)cc4)nnc3c2c1 | > 83.3 µM (inactive)
CCc1ccc2c(c1)c1nnc(SCC(=O)Nc3ccc4c(c3)OCO4)nc1n2C | 81.1 µM (inactive)
CC(=O)N(CCc1ccccc1)C1CC(=O)N(c2ccc(Br)cc2)C1=O (centres undefined) | > 27.8 µM (inactive)
COCCc1nc2ccc(C(=O)NCCc3nc4ccc(OC)cc4[nH]3)cc2o1 | > 27.8 µM (inactive)
CC(=O)c1cn(CC(=O)Nc2cccc(C(F)(F)F)c2)c2ccccc12 | > 27.8 µM (inactive)
O=C(Cn1cc(C(=O)COc2ccccc2)c2ccccc21)Nc1cccc(C(F)(F)F)c1 | > 27.8 µM (inactive)
CCN(CC)C(=O)C(=O)c1cn(CC(=O)Nc2cccc(OC)c2)c2ccccc12 | > 27.8 µM (inactive)
COc1ccc(CCN(C(=O)c2cccc(F)c2)C2CC(=O)N(c3ccc(Br)cc3)C2=O)cc1 (centres undefined) | > 83.3 µM (inactive)
O=C(Cn1cc(C(=O)C(=O)N2CCOCC2)c2ccccc21)NCc1ccccc1 | > 83.3 µM (inactive)
CCCCn1c(CCNC(=O)c2ccc(F)cc2)nc2ccccc21 | > 27.8 µM (inactive)
Cn1c(CCNC(=O)c2ccc(Cl)cc2)nc2ccccc21 | > 27.8 µM (inactive)
COc1ccc(CCN(C(=S)Nc2ccccc2)C2CC(=O)N(c3ccc(Cl)cc3)C2=O)cc1 (centres undefined) | 27.2 µM (inactive)
O=C1CC(NCCc2ccccc2)C(=O)N1c1ccc(Br)cc1 (centres undefined) | > 83.3 µM (inactive)
COc1ccccc1NC(=O)CSc1nnc2c(n1)[nH]c1ccc(C)cc12 | 47.1 µM (inactive)
O=C(Cn1cc(C(=O)c2ccccc2)c2ccccc21)Nc1cccc(C(F)(F)F)c1 | 55.5 µM (inactive)

SMILES | IC50
Cc1cccc(NC(=O)C2CC(=O)n3c(nc4ccccc43)N2)c1 (centres undefined) | > 27.8 µM (inactive)
CCN(C(=O)Cn1cc(C(=O)C(=O)N2CCOCC2)c2ccccc21)c1ccccc1 | > 83.3 µM (inactive)
CCN(CC)C(=O)C(=O)c1cn(CC(=O)Nc2cccc(C(F)(F)F)c2)c2ccccc12 | 38 µM (inactive)
O=C(NCCc1nc2ccccc2[nH]1)c1ccc(Cl)c(Cl)c1 | > 83.3 µM (inactive)
CCc1ccc2[nH]c3nc(SCC(=O)NCc4cccc(OC)c4)nnc3c2c1 | > 27.8 µM (inactive)
O=C(NCCc1nc2ccccc2[nH]1)c1ccc(Cl)cc1 | > 27.8 µM (inactive)
CNC(=S)N(CCc1ccccc1)C1CC(=O)N(c2ccc(Br)cc2)C1=O (centres undefined) | > 27.8 µM (inactive)
Cc1cc2cc(C(=O)N3CCCC(c4nc5ccccc5[nH]4)C3)ccc2o1 (centres undefined) | > 27.8 µM (inactive)
Cc1ccc(CNC(=O)CSc2nnc3c(n2)[nH]c2ccc(C)cc23)cc1 | > 27.8 µM (inactive)
CCN(CC)C(=O)C(=O)c1cn(CC(=O)N(CC)c2ccccc2)c2ccccc12 | > 27.8 µM (inactive)
CCN(CC)C(=O)C(=O)c1cn(CC(=O)N2CCCc3ccccc32)c2ccccc12 | > 83.3 µM (inactive)
Cc1cccc2[nH]c(C3CCCN(C(=O)c4cccc5cccnc45)C3)nc12 (centres undefined) | > 27.8 µM (inactive)
O=C(Cn1cc(C(=O)C(=O)N2CCOCC2)c2ccccc21)NCC1CCCO1 (centres undefined) | > 83.3 µM (inactive)
O=C(CSC1CC(=O)N(c2cccc(Cl)c2)C1=O)Nc1ccc(Br)cc1 (centres undefined) | > 27.8 µM (inactive)
O=C(Cn1cc(C(=O)C2CC2)c2ccccc21)Nc1cccc(C(F)(F)F)c1 | > 27.8 µM (inactive)
Cc1cccc2[nH]c(CCN(C)C(=O)c3cccc(C4CCNC4)c3)nc12 (centres undefined) | > 83.3 µM (inactive)
CC1Cc2ccccc2N1C(=O)Cn1cc(C(=O)C(=O)N2CCOCC2)c2ccccc21 (centres undefined) | > 83.3 µM (inactive)
COc1ccc(NC(=O)C2CC(=O)n3c(nc4ccccc43)N2)cc1 (centres undefined) | > 83.3 µM (inactive)
O=C(Cn1cc(C(=O)C(=O)N2CCCC2)c2ccccc21)Nc1ccccc1 | > 83.3 µM (inactive)
COc1ccccc1NC(=O)Cn1cc(C(=O)C(=O)N2CCOCC2)c2ccccc21 | > 83.3 µM (inactive)
COc1cccc(NC(=O)C2CC(=O)n3c(nc4ccccc43)N2)c1 (centres undefined) | > 83.3 µM (inactive)
Cc1cccc(C(=O)NCCc2nc3ccccc3n2CCOc2ccccc2)c1 | > 27.8 µM (inactive)
O=C(NCCc1nc2ccccc2[nH]1)c1c(F)cccc1F | > 83.3 µM (inactive)
O=C(Cn1cc(C(=O)c2ccco2)c2ccccc21)Nc1cccc(C(F)(F)F)c1 | 74 µM (inactive)
